One assay concerns CML patients. The conditions noted are these: CML patients treated at the early stages of the disease; cited from earlier work.
The test system of a further assay is pAKT (S473). The assay is described as follows: phosphoflow, evoked pAKT (S473) in B-cells gated from PBMC sample, IC50 from sub-sampled cells. The conditions noted are these: repeated 100 times, read-out: log10(IC50) (converted). It is filed as cell-based. On the procedure:
In some embodiments, the invention provides tools for making robust measurements of very small subpopulations of cells. […] The IC50 for […] was calculated using pAKT measurements from 3,000 cells. […] The median fluorescence index (MFI) was then computed only from these cells and used to estimate the IC50 value. This process was repeated 100 times at each sampling level to generate a list of IC50 values. If a small number of cells is sufficiently representative of the larger population, all the IC50 values are expected to be similar to each other, and therefore the 95% confidence interval will remain small. […] For samples of 40 cells and fewer, the IC50 became increasingly inconsistent. Depending on experimental conditions, such as cell type, nodes assayed, the percentage of cells that respond to the modulator, detection methods, and the strength of the signal, the minimal number of cells needed to obtain statistically relevant measurements may vary.

The subject of a further assay is pNFkB65. The assay is described as follows: multiparameter phosphoflow, NFkB signaling in stimulated B cells. It is filed as cell-based. The conditions noted are these: stimulated B cells (FIG. 17). Here is the method: (§1) As shown in FIGS. 16-17, the methods of the invention can also be used to identify off-target effects of drug treatment. Muliparameter phosphoflow is used to detect the effects of compounds selected from the list in Table 8 on signaling pathways other than JAK/STAT. In FIG. 16, when PBMCs are treated with the JAK/STAT inhibitor Pyridone 6 (“Jak Inhibitor I,” Calbiochem), pERK levels are reduced in monocytes. […] Thus, the methods of the invention can identify both inhibition and induction of off-target signaling pathways, in this example, the ERK/MAPK pathway. The methods of the invention can also be used to identify off-target effects of JAK/STAT inhibitors on other pathways.

The next assay relates to p-STAT5 in T cells. The assay is described as follows: multiparameter phosphoflow, p-STAT5 in T cells gated from 90% whole blood. It is filed as cell-based.
Assay [1] concerns IL-27-induced p-Stat readout. The assay is described as follows: IL-27-induced JAK/STAT signaling in AML patient cells, phosphoflow p-Stat1, p-Stat3, p-Stat5. The class given is cell-based, human. Here is the method:
(§2) Cells from three patients were stimulated with the cytokines IL-27 and G-CSF to determine whether these modulators could induce JAK/STAT pathway activation across cells from different AML patient donors. IL-27 has been reported to signal through JAK1, JAK2, and Tyk2, leading to the phosphorylation of Stat1, Stat3, and Stat5. G-CSF has been reported to signal through JAK2 and Tyk2 and leads to the phosphorylation of Stat3. […] One hour after incubation, the cells were stimulated with IL-27 and G-CSF. After stimulation cell signaling was measured by multiparametric phosphoflow cytometry to assess p-Stat1, p-Stat3 and p-Stat5 levels.
(§3) The samples were gated on cell populations. Incubation with fluorochrome-conjugated monoclonal antibodies that recognize lineage specific epitopes on the cell surface delineated at least 3 cell subpopulations in patient samples. […] Three cell subsets were examined: (1) CD34−/CD117med, (2) CD34+/CD117med, (3) CD34−/CD117−. “CD117” in FIG. 18 is the same as “ckit” in FIG. 19. “Med” indicates a medium amount of expression with respect to other cell subsets that express more or less CD117.

For assay [2], the system named is G-CSF-induced p-Stat readout. The assay is described as follows: G-CSF-induced JAK/STAT signaling in AML patient cells, phosphoflow p-Stat1, p-Stat3, p-Stat5. The class given is cell-based, human. On the procedure:
as §2, §3

A further assay has as its system p-ERK in B cells. The assay is described as follows: multiparameter phosphoflow, p-ERK stimulated by CD40L in B-cells from PBMCs. The settings on record: treated PBMCs, off-target ERK/MAPK (FIG. 16). It is filed as cell-based. On the procedure: (§4) (See FIG. 11; Table 7). […] The samples are gated on cell populations.
as §1

A further assay relates to p-ERK in monocytes. The assay is described as follows: multiparameter phosphoflow, p-ERK stimulated by GM-CSF in monocytes from PBMCs. The class given is cell-based. The conditions noted are these: treated PBMCs, off-target ERK/MAPK (FIG. 16). On the procedure: as §4, §1

These results are taken from US20170102375A1, “METHODS FOR DETERMINING THE EFFECTS OF COMPOUNDS ON JAK/STAT ACTIVITY” (Nodality, Inc., priority 2009, published 2017).

The structures appear in SMILES notation. Read-outs that look alike come from different tables or passages of the source.

Description for p-STAT5 in T cells: A dose series of treatments is performed for each compound, ranging from doses as low as no compound, up to doses in the ranges of 1×10° nM, 1×10^1 nM, 1×10^2 nM, 1×10^3 nM, and 1×10^4 nM. Cell signaling is measured by multiparametric phosphoflow cytometry to assess p-Stat3, pERK, and p-Stat5 levels. The samples are gated on cell populations. This method may be used, for example, to measure JAK/STAT signaling activity in gated T cells based on levels p-Stat5 (See FIG. 12). The relationship between dosing and signaling activity can be used to calculate the IC50 for each compound (See, e.g. FIG. 12).

Regarding `Cc1ccc(NC(=O)c2ccc(CN3CCN(C)CC3)cc2)cc1Nc1nccc(-c2cccnc2)n1` [imatinib], the “complete remission, patients” value in the assay with CML patients is 97%.
What is called IC50 is the concentration at which inhibition is half-maximal. Consider `O=c1cc(N2CCOCC2)oc2c(-c3ccccc3)cccc12` [LY940002], for which the 50% inhibitory concentration (IC50) with pAKT (S473) (simulation: 10 cells sampled) was 4.79 nM; in the assay with pAKT (S473) (simulation: 20 cells sampled) it was 79.4 nM; in the assay with pAKT (S473) (simulation: 40 cells sampled), 61.7 nM; in the assay on pAKT (S473) (simulation: 80 cells sampled), 479 nM; in the assay on pAKT (S473) (simulation: 160 cells sampled), 479 nM; in the assay with pAKT (S473) (simulation: 320 cells sampled) it was 490 nM. Also, the half-inhibitory concentration (IC50) with pAKT (S473) (simulation: 640 cells sampled) was 490 nM; in the assay on pAKT (S473) (simulation: 1280 cells sampled) it was 479 nM; in the assay with pAKT (S473) (simulation: 2560 cells sampled), 490 nM; with pAKT (S473) (simulation: MFI from 5 cells sampled from 3,000 cell data set), 0.302 nM.
Regarding `CCOC(=O)c1cn(-c2c(F)c(F)c(C#N)c(F)c2F)c2c(F)c(F)c(F)cc2c1=O` [Stat3 Inhibitor VII], the “effect on NFkB signaling, levels of pNFkB65” value in the assay with pNFkB65 was “inhibits NFkB signaling”.
On to `C[C@@H]1CCN(C(=O)CC#N)C[C@@H]1N(C)c1ncnc2[nH]ccc12` [CP-690550], for which the “potency in whole blood” value in the assay on p-STAT5 in T cells (90% whole blood gated on T cells) is given as “retains a high potency”. Moreover, the “inhibition of IL-27-induced p-Stat readout” value in assay [1] (333 nM, 1 h pre-incubation, cells of two AML patient donors with IL-27-induced signaling) was “completely”. Besides, the “effect in cells from the third patient” value in assay [1] (AML patient cells in which IL-27 and G-CSF induced no signaling response) is reported as “no effect”. The “inhibition of basal phosphorylation levels in the p-Stat readout” value was “no inhibition” in assay [1] (AML patient cells, IL-27 experiment (FIG. 20)) and “no inhibition” in assay [2] (AML patient cells, G-CSF experiment (FIG. 21)). Besides, the “inhibition of G-CSF-induced p-Stat readout” value in assay [2] (3333 nM, 1 h pre-incubation, cells of two AML patient donors with G-CSF-induced signaling) was “completely”.
On to `CC(C)(O)/C=C/C(=O)[C@](C)(O)[C@H]1[C@H](O)C[C@@]2(C)[C@@H]3CC=C4[C@@H](C=C(O)C(=O)C4(C)C)[C@]3(C)C(=O)C[C@]12C` [cucurbitacin I], for which, in the assay on p-ERK in B cells, the “effect on pERK levels in B cells” value is reported as “increased”. For the same molecule, in the assay on p-ERK in monocytes, the “effect on pERK levels in monocytes” value is listed as “increased”.
Turning to `CC(C)(C)c1nc2c3cc[nH]c(=O)c3c3cc(F)ccc3c2[nH]1` [Pyridone 6], in the assay with p-STAT5 in T cells (90% whole blood gated on T cells vs stimulated PBMCs), the “decrease of potency in whole blood versus PBMCs” value is 70 fold. Also, the “effect on pERK levels in B cells” value in the assay with p-ERK in B cells was “does not reduce”. Also, the “effect on pERK levels in monocytes” value in the assay with p-ERK in monocytes is on record as “reduced”.
